Data as given in paper PMC11413854, “Reversible Control of Native GluN2B-Containing NMDA Receptors with Visible Light” (ACS Chemical Neuroscience, 2024).

Target: T1, GluN1/GluN2D (Rattus norvegicus, UniProt P35439+Q62645)
T1 construct: expressed in transfected cells; host or cells: Xenopus laevis oocytes (nuclear cDNA injection)
Assay: TEVC on Xenopus oocytes, GluN1/GluN2D diheteromers
Type: cell-based
Conditions: 1 µM trans-OptoNAM-3 (dark); listed as trans-OptoNAM-3
Source text: NMDARs exist as multiple subtypes in the brain that are formed by the combination of two GluN1 and either two identical (diheteromers) or different (triheteromers) GluN2 (GluN2A-D) subunits.[1] We assessed the selectivity of trans-OptoNAM-3 (dark PSS) for the other NMDAR subtypes.
We used cDNA coding for rat GluN1–1a (named GluN1 herein) (GenBank: U08261.1), rat GluN2A (GenBank: D13211.1), mouse GluN2B (GenBank: D10651.2), rat GluA1 flop (GenBank: M36418.2), and rat Myc-GluA2(Q)-flip (GenBank: AF164344.1) cloned into pcDNA3-based expression plasmids. GluK2 (GenBank: Z11548.1) corresponds to the fully RNA-edited version.[80] The GluN2B-ΔNTD construct is from ref[45] and GluN2B–N615K is from ref[81]. Single mutants GluN2B-Q110G and GluN1-L135H were from ref[19]. The GluA2 cDNA contains a Myc tag ([…]) fused between the signal peptide and the N-terminus sequences, and the GluA2 subunit is […] for its Q/R/N site (GluA2(Q)) to allow permeation of homomeric GluA2 receptors.[2] cDNAs coding for rat GluN2C (GenBank: M91563.1) and GluN2D subunits (GenBank: L31611.1) were in prK5 plasmids.
Expression of recombinant NMDA receptors was obtained by oocyte nuclear coinjection of 37 nL of a mixture of cDNAs (at 30 ng/μL) coding for GluN1–1a and various GluN2 subunits (ratio 1:1). The protocol in ref[43] was followed for the expression of GluN1/GluN2A/GluN2B triheteromers. […]

T1 sequence (Q62645 28-1323, other chains not shown): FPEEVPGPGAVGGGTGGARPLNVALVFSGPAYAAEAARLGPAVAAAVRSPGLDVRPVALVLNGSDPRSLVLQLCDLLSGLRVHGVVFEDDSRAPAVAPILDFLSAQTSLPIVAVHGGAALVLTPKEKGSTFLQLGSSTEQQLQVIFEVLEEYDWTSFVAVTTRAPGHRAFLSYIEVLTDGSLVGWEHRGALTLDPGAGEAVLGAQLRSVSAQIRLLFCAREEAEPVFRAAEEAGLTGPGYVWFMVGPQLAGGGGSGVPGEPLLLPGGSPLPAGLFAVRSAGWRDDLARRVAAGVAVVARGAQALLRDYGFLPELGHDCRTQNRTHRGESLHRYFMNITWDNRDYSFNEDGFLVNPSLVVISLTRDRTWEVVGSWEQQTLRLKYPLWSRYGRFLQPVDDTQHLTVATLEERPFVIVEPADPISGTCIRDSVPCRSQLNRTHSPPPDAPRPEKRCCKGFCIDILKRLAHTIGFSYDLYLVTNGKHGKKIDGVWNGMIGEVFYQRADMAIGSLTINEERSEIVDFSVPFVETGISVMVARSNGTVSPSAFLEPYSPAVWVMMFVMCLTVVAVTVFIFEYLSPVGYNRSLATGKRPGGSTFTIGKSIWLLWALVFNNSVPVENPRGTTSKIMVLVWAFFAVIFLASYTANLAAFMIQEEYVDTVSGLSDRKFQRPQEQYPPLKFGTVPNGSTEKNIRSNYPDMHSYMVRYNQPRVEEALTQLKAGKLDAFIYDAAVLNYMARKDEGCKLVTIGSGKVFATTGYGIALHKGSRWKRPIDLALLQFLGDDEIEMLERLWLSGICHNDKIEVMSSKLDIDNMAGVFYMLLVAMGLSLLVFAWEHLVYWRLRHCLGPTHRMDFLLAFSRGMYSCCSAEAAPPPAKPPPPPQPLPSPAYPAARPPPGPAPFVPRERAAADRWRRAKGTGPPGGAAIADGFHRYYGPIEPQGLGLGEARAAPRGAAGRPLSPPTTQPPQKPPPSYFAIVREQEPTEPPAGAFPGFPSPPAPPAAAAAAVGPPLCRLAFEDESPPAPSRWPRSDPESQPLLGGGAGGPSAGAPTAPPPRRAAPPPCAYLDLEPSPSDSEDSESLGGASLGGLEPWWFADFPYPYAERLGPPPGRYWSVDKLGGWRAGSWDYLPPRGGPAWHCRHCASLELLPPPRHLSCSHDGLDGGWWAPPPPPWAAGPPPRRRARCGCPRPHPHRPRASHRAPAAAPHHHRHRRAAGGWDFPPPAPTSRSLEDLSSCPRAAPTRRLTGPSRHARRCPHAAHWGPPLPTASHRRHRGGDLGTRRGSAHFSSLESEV

c1ccc(/N=N/c2ccc(CCNc3ccncc3)cc2)cc1 [OptoNAM-3, (E)-N-(4-(Phenyldiazenyl)phenethyl)pyridin-4-amine]
inhibition of GluN1/GluN2D: 2.2% ± 0.2%
